This note sets out measurements from patent US9409952B2, “Peptide-compound cyclization method” (Chugai Seiyaku Kabushiki Kaisha, priority 2011, dated 2016).

Data set [1] in a line: Metabolic stability in human hepatic microsome. In kind it is in vitro ADME. The conditions noted are these: NADPH(+), read-out: CL NADPH(+).
A short description of data set [2]: PAMPA (parallel artificial membrane permeability assay). In kind it is in vitro ADME. The conditions noted are these: PAMPA; membrane permeation rate (Pe); 50 mM MOPSO buffer pH 6.5 with 5.0% glycocholic acid, 37° C., 18 hours; read-out: iPAMPA Pe. In outline:
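Artificial membrane was 10% (w/v) egg lecithin plus 0.5% (w/v) cholesterol in dodecane on a PVDF filter. A 10 mM DMSO stock was added at 0.5% (v/v) to donor buffer (50 mM MOPSO, pH 6.5, 5.0% glycocholic acid). After 18 h at 37 °C, LC/MS or LC/UV gave donor and acceptor levels for Pe.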

Setting [3] is: microsomes, pH 7.4, human hepatic microsome.

Read-outs that look alike come from different tables or passages of the source. Starred links: 1 amine or outer side, 2 acyl side, 3 side chain; linkers in the order of their positions; H or OH if unused. Positions of bridges follow the written chain, without caps; N, C: chain ends. Non-standard residues stand in square brackets, D forms with d. Residues, ends and D or L forms follow the SMILES beside them. *: point of attachment. NMeF = CN[C@@H](Cc1ccccc1)C(=O)O; NMeI = CC[C@H](C)[C@H](NC)C(=O)O; NMeβAla = CN(CCC(=O)[*:2])[*:1]; NMeL = CN[C@@H](CC(C)C)C(=O)O; NMeV = CN[C@H](C(=O)O)C(C)C; NMeA = CN[C@@H](C)C(=O)O; Piperidide = C1CCN(*)CC1; dNMeA = CN[C@H](C)C(=O)O; Sar = CNCC(=O)O; tBu = CC(C)(C)*

On to `CC(C)C[C@H]1C(=O)N(C)[C@@H](Cc2ccccc2)C(=O)N[C@@H]([C@@H](C)O)C(=O)N(C)[C@@H](C)C(=O)N(C)[C@@H](CC(C)C)C(=O)N[C@@H](C(C)C)C(=O)N(C)[C@@H](CC(C)C)C(=O)N[C@H](C(=O)N(C)[C@@H](Cc2ccccc2)C(=O)N[C@@H](C)C(=O)N2CCCCC2)CC(=O)N(C)CC(=O)N1C` [DP-202] ([Sar][NMeL][NMeF]T[NMeA][NMeL]V[NMeL]D[NMeF]A-Piperidide; lactam N-9), for which the microsomal CLint at 1 uM in data set [1] (setting [3]) was 134 µL/min/mg. Further, the Papp at 18 hours, 50 µM in data set [2] stood at 55 ×10⁻⁶ cm/s.
The like results for `CC(C)C[C@H]1C(=O)N[C@H](C(=O)N(C)[C@@H](Cc2ccccc2)C(=O)N(C)[C@@H](Cc2ccccc2)C(=O)N[C@@H](C)C(=O)N2CCCCC2)CC(=O)N[C@@H](C)C(=O)N(C)[C@@H](Cc2ccccc2)C(=O)N(C)[C@@H](C)C(=O)N(C)[C@@H](CC(C)C)C(=O)N[C@@H]([C@@H](C)O)C(=O)N(C)[C@@H](C)C(=O)N(C)[C@@H](CC(C)C)C(=O)N[C@@H](C(C)C)C(=O)N1C` [DP-203] (A[NMeF][NMeA][NMeL]T[NMeA][NMeL]V[NMeL]D[NMeF][NMeF]A-Piperidide; lactam N-10) were, in that order, 18 µL/min/mg and 11 ×10⁻⁶ cm/s.
Regarding `CC(C)C[C@H]1C(=O)N[C@H](C(=O)N(C)[C@@H](Cc2ccccc2)C(=O)N(C)[C@@H](Cc2ccccc2)C(=O)N[C@@H](C)C(=O)N2CCCCC2)CC(=O)N[C@H](C)C(=O)N(C)[C@@H](C)C(=O)N(C)[C@@H](Cc2ccccc2)C(=O)N(C)[C@@H](CC(C)C)C(=O)N[C@@H]([C@@H](C)O)C(=O)N(C)[C@@H](C)C(=O)N(C)[C@@H](CC(C)C)C(=O)N[C@@H](C(C)C)C(=O)N1C` [DP-204] ([dA][NMeA][NMeF][NMeL]T[NMeA][NMeL]V[NMeL]D[NMeF][NMeF]A-Piperidide; lactam N-10), in data set [1] (setting [3]), the microsomal CLint at 1 uM is 48 µL/min/mg. Moreover, the Papp at 18 hours, 50 µM in data set [2] was determined as 22 ×10⁻⁶ cm/s.
The like results for `CC(C)C[C@H]1C(=O)N[C@@H]([C@@H](C)O)C(=O)N(C)[C@@H](Cc2ccccc2)C(=O)N(C)[C@@H](CC(C)C)C(=O)NCC(=O)N(C)[C@@H](C(C)C)C(=O)N[C@@H](Cc2ccccc2)C(=O)N[C@H](C(=O)N(C)[C@@H](Cc2ccccc2)C(=O)N(C)[C@@H](Cc2ccccc2)C(=O)N[C@@H](C)C(=O)N2CCCCC2)CC(=O)N[C@H](C(C)C)C(=O)N[C@@H](C(C)C)C(=O)N1C` [DP-205] ([dV]V[NMeL]T[NMeF][NMeL]G[NMeV]FD[NMeF][NMeF]A-Piperidide; lactam N-10) were, in that order, 29 µL/min/mg and 0.12 ×10⁻⁶ cm/s.
The like results for `CC(C)C[C@H]1C(=O)N(C)[C@@H](CC(C)C)C(=O)N[C@@H]([C@@H](C)O)C(=O)N(C)[C@@H](Cc2ccccc2)C(=O)N(C)[C@@H](CC(C)C)C(=O)N[C@H](C(=O)N(C)[C@@H](Cc2ccccc2)C(=O)N(C)[C@@H](Cc2ccccc2)C(=O)N[C@@H](C)C(=O)N2CCCCC2)CC(=O)N(C)[C@H](C)C(=O)N(C)[C@@H](Cc2ccccc2)C(=O)N(C)[C@@H](CC(C)C)C(=O)N[C@@H](C)C(=O)N1C` [DP-207] ([dNMeA][NMeF][NMeL]A[NMeL][NMeL]T[NMeF][NMeL]D[NMeF][NMeF]A-Piperidide; lactam N-10) were, in that order, 12 µL/min/mg and 0.16 ×10⁻⁶ cm/s.
`CC(C)C[C@H]1C(=O)N[C@H](C(=O)N(C)[C@@H](Cc2ccccc2)C(=O)N(C)[C@@H](Cc2ccccc2)C(=O)N[C@@H](C)C(=O)N2CCCCC2)CC(=O)N[C@@H](C)C(=O)N(C)[C@@H](Cc2ccccc2)C(=O)N(C)[C@@H](CC(C)C)C(=O)N[C@@H]([C@@H](C)O)C(=O)N(C)[C@@H](C)C(=O)N(C)[C@@H](CC(C)C)C(=O)N[C@@H](C(C)C)C(=O)N1C` [DP-208] (A[NMeF][NMeL]T[NMeA][NMeL]V[NMeL]D[NMeF][NMeF]A-Piperidide; lactam N-9): the microsomal CLint at 1 uM in data set [1] (setting [3]) worked out at 34 µL/min/mg. Moreover, in data set [2], the Papp at 18 hours, 50 µM stood at 27 ×10⁻⁶ cm/s.
The like results for `CC(C)C[C@H]1C(=O)N[C@@H](C(C)C)C(=O)N(C)[C@@H](Cc2ccccc2)C(=O)NCC(=O)N[C@H](C(=O)N(C)[C@@H](Cc2ccccc2)C(=O)N(C)[C@@H](Cc2ccccc2)C(=O)N[C@@H](C)C(=O)N2CCCCC2)CC(=O)N[C@H](C)C(=O)N[C@@H]([C@@H](C)O)C(=O)N(C)[C@@H](C)C(=O)N(C)[C@@H](Cc2ccccc2)C(=O)N1C` [DP-209] ([dA]T[NMeA][NMeF][NMeL]V[NMeF]GD[NMeF][NMeF]A-Piperidide; lactam N-9) were, in that order, 98 µL/min/mg and 42 ×10⁻⁶ cm/s.
`CC(C)C[C@H]1C(=O)N[C@H](C(=O)N(C)[C@@H](Cc2ccccc2)C(=O)N(C)[C@@H](Cc2ccccc2)C(=O)N[C@@H](C)C(=O)N2CCCCC2)CC(=O)N(C)[C@@H](C)C(=O)N(C)[C@@H](Cc2ccccc2)C(=O)N[C@@H]([C@@H](C)O)C(=O)N(C)[C@@H](C)C(=O)N(C)[C@@H](CC(C)C)C(=O)N(C)[C@@H](CC(C)C)C(=O)N[C@@H](C(C)C)C(=O)N1C` [DP-211] ([NMeA][NMeF]T[NMeA][NMeL][NMeL]V[NMeL]D[NMeF][NMeF]A-Piperidide; lactam N-9): the microsomal CLint at 1 uM in data set [1] (setting [3]) was 178 µL/min/mg. In addition, in data set [2], the Papp at 18 hours, 50 µM is 3.2 ×10⁻⁶ cm/s.
The like results for `CC(C)C[C@H]1C(=O)N(C)[C@@H](CC(C)C)C(=O)N[C@@H](C(C)C)C(=O)N[C@H](C(=O)N(C)[C@@H](Cc2ccccc2)C(=O)N(C)[C@@H](Cc2ccccc2)C(=O)N[C@@H](C)C(=O)N2CCCCC2)CC(=O)N(C)CCC(=O)N(C)[C@@H](C)C(=O)N(C)[C@@H](Cc2ccccc2)C(=O)N[C@@H]([C@@H](C)O)C(=O)N(C)CC(=O)N1C` [DP-212] ([NMeβAla][NMeA][NMeF]T[Sar][NMeL][NMeL]VD[NMeF][NMeF]A-Piperidide; lactam N-9) were, in that order, 27 µL/min/mg and 29 ×10⁻⁶ cm/s.
On to `CC(C)C[C@H]1C(=O)N(C)[C@@H](Cc2ccccc2)C(=O)NCC(=O)N(C)[C@@H](Cc2ccccc2)C(=O)N(C)[C@@H](C)C(=O)N[C@@H]([C@@H](C)O)C(=O)N[C@H](C(=O)N(C)[C@@H](Cc2ccccc2)C(=O)N(C)[C@@H](Cc2ccccc2)C(=O)N[C@@H](C)C(=O)N2CCCCC2)CC(=O)N(C)[C@H](C)C(=O)N[C@@H](C(C)C)C(=O)N1C` [DP-213] ([dNMeA]V[NMeL][NMeF]G[NMeF][NMeA]TD[NMeF][NMeF]A-Piperidide; lactam N-9), for which the microsomal CLint at 1 uM in data set [1] (setting [3]) is 71 µL/min/mg. Moreover, in data set [2], the Papp at 18 hours, 50 µM was 55 ×10⁻⁶ cm/s.
The like results for `CC(C)C[C@H]1C(=O)N[C@@H]([C@@H](C)O)C(=O)N(C)[C@@H](C)C(=O)N(C)[C@@H](CC(C)C)C(=O)N[C@@H](C(C)C)C(=O)N[C@H](C(=O)N(C)[C@@H](Cc2ccccc2)C(=O)N(C)[C@@H](Cc2ccccc2)C(=O)N[C@@H](C)C(=O)N2CCCCC2)CC(=O)N(C)[C@H](C)C(=O)N(C)[C@@H](Cc2ccccc2)C(=O)N(C)CC(=O)N1C` [DP-214] ([dNMeA][NMeF][Sar][NMeL]T[NMeA][NMeL]VD[NMeF][NMeF]A-Piperidide; lactam N-9) were, in that order, 33 µL/min/mg and 34 ×10⁻⁶ cm/s.
The like results for `CC[C@H](C)[C@H]1C(=O)N[C@H](C(=O)N2CCCCC2)CC(=O)N[C@H](C)C(=O)N[C@@H]([C@@H](C)O)C(=O)N(C)[C@@H](Cc2ccccc2)C(=O)N[C@@H](CC(C)C)C(=O)N2CCC[C@H]2C(=O)N(C)[C@@H](C(C)C)C(=O)N[C@@H](Cc2ccccc2)C(=O)N(C)CC(=O)N(C)[C@@H](CC(C)C)C(=O)N[C@@H](C)C(=O)N1C` [DP-215] ([dA]T[NMeF]LP[NMeV]F[Sar][NMeL]A[NMeI]D-Piperidide; lactam N-12) were, in that order, 35 µL/min/mg and 24 ×10⁻⁶ cm/s.
The like results for `CC[C@H](C)[C@H]1C(=O)N[C@H](C(=O)N2CCCCC2)CC(=O)N[C@H](C(C)C)C(=O)N[C@@H](CC(C)C)C(=O)N(C)[C@@H](Cc2ccccc2)C(=O)N[C@@H]([C@@H](C)O)C(=O)N(C)[C@@H](C)C(=O)N[C@@H](C(C)C)C(=O)N[C@@H](Cc2ccccc2)C(=O)N(C)[C@@H](CC(C)C)C(=O)N[C@@H](CC(C)C)C(=O)NCC(=O)N1C` [DP-216] ([dV]L[NMeF]T[NMeA]VF[NMeL]LG[NMeI]D-Piperidide; lactam N-12) were, in that order, 43 µL/min/mg and 4.5 ×10⁻⁶ cm/s.
As for `CC[C@H](C)[C@H]1C(=O)N[C@@H](C)C(=O)N[C@@H](Cc2ccccc2)C(=O)N(C)[C@@H](Cc2ccccc2)C(=O)N[C@@H]([C@@H](C)O)C(=O)N(C)[C@@H](C)C(=O)N[C@@H](CC(C)C)C(=O)N[C@H](C(=O)N2CCCCC2)CC(=O)N[C@H](C(C)C)C(=O)N(C)[C@@H](C(C)C)C(=O)NCC(=O)N(C)[C@@H](CC(C)C)C(=O)N1C` [DP-217] ([dV][NMeV]G[NMeL][NMeI]AF[NMeF]T[NMeA]LD-Piperidide; lactam N-12), the microsomal CLint at 1 uM in data set [1] (setting [3]) is 37 µL/min/mg. The Papp at 18 hours, 50 µM in data set [2] came to 38 ×10⁻⁶ cm/s.
Take `CC[C@H](C)[C@H]1C(=O)N[C@@H](CC(C)C)C(=O)N(C)[C@@H](C)C(=O)N(C)[C@@H](Cc2ccccc2)C(=O)NCC(=O)N[C@@H]([C@@H](C)O)C(=O)N[C@@H](Cc2ccccc2)C(=O)N(C)[C@@H](CC(C)C)C(=O)N2CCC[C@H]2C(=O)N[C@H](C(=O)N2CCCCC2)CC(=O)N[C@H](C(C)C)C(=O)N[C@@H](CC(C)C)C(=O)N1C` [DP-218] ([dV]L[NMeI]L[NMeA][NMeF]GTF[NMeL]PD-Piperidide; lactam N-12): in data set [1] (human, liver microsomes, pH 7.4, human hepatic microsome), the microsomal CLint at 1 uM worked out at 18 µL/min/mg. Further, in data set [2], the Papp at 18 hours, 50 µM was determined as 33 ×10⁻⁶ cm/s.
`CC[C@H](C)[C@H]1C(=O)N[C@@H](C)C(=O)N(C)[C@@H](CC(C)C)C(=O)N[C@@H]([C@@H](C)O)C(=O)N[C@@H](Cc2ccccc2)C(=O)N(C)[C@@H](Cc2ccccc2)C(=O)N(C)[C@@H](CC(C)C)C(=O)N[C@@H](COC(C)(C)C)C(=O)N(C)[C@@H](CC(C)C)C(=O)N(C)[C@@H](C)C(=O)N[C@H](C(=O)N2CCCCC2)CC(=O)N[C@H](C(C)C)C(=O)N1C` [DP-219] ([dV][NMeI]A[NMeL]TF[NMeF][NMeL]S(tBu)[NMeL][NMeA]D-Piperidide; lactam N-12): the microsomal CLint at 1 uM in data set [1] (setting [3]) was determined as 49 µL/min/mg. Further, the Papp at 18 hours, 50 µM in data set [2] turned out to be 1.3 ×10⁻⁶ cm/s.
